Data published in patent US9464060B2, “Compounds” (TAKEDA PHARMACEUTICAL COMPANY LIMITED, priority 2013, dated 2016).
Structures can show the parent of a compound that is named as a salt.

Columns and labels:
LPA5 receptor [1] = test: In vivo farnesyl pyrophosphate-induced hyperalgesia model (Randall-Selitto); settings: rat, FPP-induced hyperalgesia
Experimental: In Vivo Farnesyl Pyrophosphate-Induced Inflammatory Model
The FPP-induced hyperalgesia model is a pharmacodynamic rat model which involves inducing pain by injecting FPP, an agonist of LPA5 receptor, into the plantar surface of the hindpaw.
Withdrawal responses were reassessed at 30 and 90 minutes after injection of FPP in the ipsilateral paw.

LPA5 receptor [2] = target: T1, LPA5 receptor (Homo sapiens (Human), UniProt Q9H1C0); test: In vitro LPA5 receptor assay (LPA-driven intracellular calcium release, FLIPR); assay type: cell-based; settings: RH7777 cells expressing human LPA5 receptors; LPA at EC90
T1 sequence (Q9H1C0 whole entry): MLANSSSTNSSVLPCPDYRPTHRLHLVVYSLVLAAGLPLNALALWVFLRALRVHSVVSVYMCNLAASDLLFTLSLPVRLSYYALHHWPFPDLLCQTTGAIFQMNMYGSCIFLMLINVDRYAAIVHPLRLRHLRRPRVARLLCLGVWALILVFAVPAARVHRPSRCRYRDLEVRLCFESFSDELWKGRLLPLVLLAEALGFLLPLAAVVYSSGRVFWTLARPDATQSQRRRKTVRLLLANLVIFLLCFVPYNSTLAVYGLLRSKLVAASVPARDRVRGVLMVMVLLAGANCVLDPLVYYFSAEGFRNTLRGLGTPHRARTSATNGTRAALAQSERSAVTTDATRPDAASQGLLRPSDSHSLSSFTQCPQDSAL
Experimental: In Vitro LPA5 Receptor Assay
(§1) Engagement of the LPA5 receptor by its ligand, oleoyl-L-α-lysophosphatidic acid (LPA), leads to the release of intracellular stores of calcium into the cytoplasm mediated through a Gq-driven increase in inositol triphosphate (IP3) levels. Gq is a heterotrimeric G protein subunit that activates phospholipase C.
The ability of test compounds to prevent LPA-driven intracellular release of stored calcium from RH7777 cells expressing human LPA5 receptors was assayed by stimulating the cells with LPA in the presence of various test compounds to measure the test compounds'antagonism, i.e. activity in vitro.
(§2) Approximately 10,000 cells in normal culture medium (Minimal Essential Media, 10% Foetal Calf Serum) were dispensed per assay well in a black clear bottom poly-D-lysine coated 384 well plate (Corning). Cells were allowed to settle for thirty minutes at room temperature before being incubated overnight at 37° C., 5% CO2. Sixteen to twenty hours after dispensing, the cells were loaded with a calcium-sensitive fluorescent dye by replacing the culture medium with assay buffer (1× Hanks buffered saline, 25 mM HEPES, 0.1% w/v fatty acid free BSA (bovine serum albumin), pH7.4) containing 1.25 mM probenecid and 1× Calcium 5 Reagent (Molecular Devices). Cells were incubated at 37° C. for one hour to allow for dye uptake.
(§3) To test for antagonist activity, test compounds at a final concentration range between 0.32 nM-10 μM (diluted in assay buffer) were added to the assay wells and allowed to incubate for fifteen minutes. […] Ligand-dependent changes in intracellular calcium levels were determined by measuring changes in fluorescence of the dye over […] following excitation over […].

human LPA1 receptors = human LPA1 receptors (Homo sapiens (Human), UniProt Q92633); test: In vitro LPA1 receptor assay (LPA-driven intracellular calcium release, FLIPR); assay type: cell-based; settings: RH7777 cells expressing human LPA1 receptors; LPA at EC80
human LPA1 receptors, sequence (Q92633 whole entry): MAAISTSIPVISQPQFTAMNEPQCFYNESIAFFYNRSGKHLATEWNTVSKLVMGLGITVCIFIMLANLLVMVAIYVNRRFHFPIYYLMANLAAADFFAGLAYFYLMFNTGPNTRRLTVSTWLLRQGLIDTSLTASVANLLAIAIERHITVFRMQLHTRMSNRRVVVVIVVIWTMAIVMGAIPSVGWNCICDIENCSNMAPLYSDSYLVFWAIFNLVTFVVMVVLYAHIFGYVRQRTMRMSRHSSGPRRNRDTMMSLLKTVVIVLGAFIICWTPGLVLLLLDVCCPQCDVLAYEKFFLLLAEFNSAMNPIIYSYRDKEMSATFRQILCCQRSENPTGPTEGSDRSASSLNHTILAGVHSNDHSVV
Experimental: In Vitro LPA1 Receptor Assay
as §1, with “LPA1” for “LPA5”
The ability of test compounds to prevent LPA-driven intracellular release of stored calcium from RH7777 cells expressing human LPA1 receptors was assayed by stimulating the cells with LPA in the presence of various test compounds to measure the test compounds' antagonism, i.e. activity in vitro.
as §2, with “(Dulbecco's Modified Eagle” for “(Minimal Essential”, “collagen” for “poly-D-lysine”, “(Beckton Dickinson).” for “(Corning).”
as §3, with “twenty five” for “fifteen”

[3] = In vivo bleomycin induced scleroderma model; design: species or system C57BL/6 mice; settings: mice, bleomycin i.d.
Experimental: In Vivo Bleomycin Induced Scleroderma Model Experimental Outline
Adult male C57BL/6 mice, aged 8-10 weeks, were assigned to groups and allowed to acclimatise for a week. On Day −1, the back skin of the animals was shaved. From Day 0, animals were administered with 100 μl of a 1 mg/ml solution of bleomycin sulphate in phosphate buffered saline (PBS) by intradermal injection in the shaved skin. Injections were repeated in a one square centimeter area every other day for four weeks. A group of ten animals (Control group) was injected with an identical volume of PBS. Animals were weighed at the beginning of the experiment on Day 0 and then twice weekly throughout the study. At the end of the experiment, on Day 28, animals were culled and samples of back skin were taken for further analysis. All groups were n=10; the vehicle was distilled water and the administration volume was 10 ml/kg for oral gavage (p.o.); administration volume was 25 μl for topical application.
Bodyweights were graphed along with the standard error of the mean (SEM); Skin samples (two punch biopsies per animal, 4 mm in diameter each) samples were hydrolyzed and hydroxyproline content of the samples was determined from analysis in a semi-automated process using a continuous flow analyzer. Autoanalyser readings were calibrated against hydroxyproline standards and collagen content calculated. […] Bleomycin administration induced a highly significant increase in skin collagen content when compared to the control, saline-injected, group (p<0.01).

LPA5 receptor [4] = target: T1, LPA5 receptor; settings: reported, cited from earlier work

Row | SMILES | IC50 (LPA5 receptor [2]) | IC50 (human LPA1 receptors) | further results
1 | Cc1ccc(NC(=O)c2ccc(CN3CCN(C)CC3)cc2)cc1Nc1nccc(-c2cccnc2)n1 [Imatinib, Imatinib mesylate, reference compound] | – | – | skin collagen content compared to the vehicle-treated group ([3]; treatment from Day 0 to Day 28): non-significant reduction
2 | CC(C)CCN(Cc1ccc(C(=O)O)cc1)C(=O)c1ccc(Oc2ccccc2F)cc1 [Example 8, 4-((4-(2-Fluorophenoxy)-N-isopentylbenzamido)methyl)benzoic acid] | 32 nM | 46 nM | In vivo efficacy (minimum effective dose (MED) (LPA5 receptor [1]; route po): 100 mg/kg
3 | CC(C)=CCC/C(C)=C/CC/C(C)=C/COP(=O)(O)OP(=O)(O)O [Farnesyl pyrophosphate] | – | – | EC50 (LPA5 receptor [4]; LPA5 receptor, read-out: in-vitro EC50): 49 nM; selectivity over other LPA receptors (LPA5 receptor [4]): 3 fold
4 | C[C@H]1C[C@H]2[C@@H]3CCC4=CC(=O)C=C[C@]4(C)[C@@]3(F)[C@@H](O)C[C@]2(C)[C@@]1(O)C(=O)CO [Betamethasone, reference compound] | – | – | skin collagen content compared to the vehicle-treated group ([3]; treatment from Day 0 to Day 28): non-significant reduction
5 | O=C(O)c1ccc(CN(C[C@H](O)Cc2ccccc2)C(=O)c2ccc(Oc3ccccc3F)cc2)cc1 [Example 20, (R)-4-((4-(2-Fluorophenoxy)-N-(2-hydroxy-3-phenylpropyl)-benzamido)methyl)benzoic acid] | 40 nM | 12 nM | –
6 | COc1ccc(F)cc1Oc1ccc(C(=O)N(Cc2ccc(C(=O)O)cc2)CC2CC2)cc1 [Example 79, 4-((N-(Cyclopropylmethyl)-4-(5-fluoro-2-methoxyphenoxy)benzamido)methyl)benzoic acid] | 68 nM | 94 nM | –
7 | CCCN(Cc1ccc(C(=O)O)cc1)C(=O)c1ccc(Oc2ccccc2F)cc1 [Example 60, 4-((4-(2-Fluorophenoxy)-N-propylbenzamido)methyl)benzoic acid] | 60 nM | 33 nM | –
8 | O=C(O)c1ccc(CN(CC(F)(F)F)C(=O)c2ccc(Oc3ccccc3F)cc2)cc1 [Example 3, 4-((4-(2-Fluorophenoxy)-N-(2,2,2-trifluoroethyl)benzamido)-methyl)benzoic acid] | 43 nM | 35 nM | –
9 | COc1ccccc1Oc1ccc(C(=O)N(Cc2ccc(C(=O)O)cc2)CC(F)F)cc1 [Example 29, 4-((N-(2,2-Difluoroethyl)-4-(2-methoxyphenoxy)benzamido)-methyl)benzoic acid] | 43 nM | 34 nM | –
10 | CC(C)CN(Cc1ccc(C(=O)O)cc1)C(=O)c1ccc(Oc2ccccc2F)cc1 [Example 4, 4-((4-(2-Fluorophenoxy)-N-isobutylbenzamido)methyl)benzoic acid] | 63 nM | 49 nM | In vivo efficacy (minimum effective dose (MED) (LPA5 receptor [1]; route ip): 1 mg/kg; In vivo efficacy (minimum effective dose (MED) mg/kg) (LPA5 receptor [1]; route po): ≦10 mg/kg
11 | O=C(O)c1ccc(CN(CCC(F)(F)F)C(=O)c2ccc(Oc3ccccc3F)cc2)cc1 [Example 71, 4-((4-(2-Fluorophenoxy)-N-(3,3,3-trifluoropropyl)benzamido)methyl)benzoic acid] | 83 nM | 59 nM | –
12 | O=C(O)c1ccc(CN(CC(F)F)C(=O)c2ccc(Oc3ccccc3Cl)cc2)cc1 [Example 78, 4-((4-(2-Chlorophenoxy)-N-(2,2-difluoroethyl)benzamido)methyl)benzoic acid] | 170 nM | 390 nM | –

Now from value to compound, other results behind:

Row | IC50 (LPA5 receptor [2]) | IC50 (human LPA1 receptors) | SMILES | further results
13 | 7 nM | 11 nM | Cc1ccccc1Oc1ccc(C(=O)N(Cc2ccccc2)Cc2ccc(C(=O)O)cc2)cc1 [Example 24, 4-((N-Benzyl-4-(o-tolyloxy)benzamido)methyl)benzoic acid] | In vivo efficacy (minimum effective dose (MED) (LPA5 receptor [1]; route po): 30 mg/kg
14 | 6 nM | 6 nM | O=C(O)c1ccc(CN(Cc2ccccc2)C(=O)c2ccc(Oc3ccccc3F)cc2)cc1 [Example 11, 4-((N-Benzyl-4-(2-fluorophenoxy)benzamido)methyl)benzoic acid] | In vivo efficacy (minimum effective dose (MED) mg/kg) (LPA5 receptor [1]; route po): ≦10 mg/kg
15 | 28 nM | 25 nM | O=C(O)c1ccc(CN(CC2CC2)C(=O)c2ccc(Oc3c(F)cccc3F)cc2)cc1 [Example 37, 4-((N-(Cyclopropylmethyl)-4-(2,6-difluorophenoxy)benzamido)-methyl)benzoic acid] | –
16 | 8 nM | 12 nM | COc1ccccc1Oc1ccc(C(=O)N(Cc2ccc(C(=O)O)cc2)CC2CC2)nc1 [Example 69, 4-((N-(Cyclopropylmethyl)-5-(2-methoxyphenoxy)-picolinamido)methyl)benzoic acid] | –
17 | 22 nM | 31 nM | CCCCN(Cc1ccc(C(=O)O)cc1)C(=O)c1ccc(Oc2ccccc2F)cc1 [Example 75, 4-((N-Butyl-4-(2-fluorophenoxy)benzamido)methyl)benzoic acid] | –
18 | 26 nM | 27 nM | O=C(O)c1ccc(CN(CC2CC2)C(=O)c2ccc(Oc3ccccc3F)cc2F)cc1 [Example 54, 4-((N-(Cyclopropylmethyl)-2-fluoro-4-(2-fluorophenoxy)-benzamido)methyl)benzoic acid] | –
19 | 31 nM | 160 nM | Cc1cccc(F)c1Oc1ccc(C(=O)N(Cc2ccc(C(=O)O)cc2)CC2CC2)cc1 [Example 40, 4-((N-(Cyclopropylmethyl)-4-(2-fluoro-6-methylphenoxy)-benzamido)methyl)benzoic acid] | In vivo efficacy (minimum effective dose (MED) (LPA5 receptor [1]; route po): 60 mg/kg
20 | 16 nM | 46 nM | O=C(O)c1ccc(CN(CC2CC2)C(=O)c2ccc(Oc3ccccc3F)cc2)cc1 [Example 5, 4-((N-(Cyclopropylmethyl)-4-(2-fluorophenoxy)benzamido)-methyl)benzoic acid] | bodyweight loss compared to the vehicle-treated group ([3]; 30 mg/kg p.o. BID): did not differ; skin collagen content compared to the vehicle-treated group ([3]; treatment from Day 0 to Day 28): significant reduction; skin collagen content compared to the vehicle-treated group ([3]; treatment from Day 14 to Day 28, 30 mg/kg p.o. BID): significant reduction
21 | 0.4 nM | 2 nM | COc1ccccc1Oc1ccc(C(=O)N(CCCc2ccccc2)Cc2ccc(C(=O)O)cc2)cc1 [Example 32, 4-((4-(2-Methoxyphenoxy)-N-(3-phenylpropyl)benzamido)-methyl)benzoic acid] | –
22 | 5 nM | 7 nM | COc1ccccc1Oc1ccc(C(=O)N(Cc2ccc(C(=O)O)cc2)CC2CC2)c(F)c1 [Example 66, 4-((N-(Cyclopropylmethyl)-2-fluoro-4-(2-methoxyphenoxy)benzamido)methyl)benzoic acid] | –
